Results published in patent US20060194837A1, “Tetrahydroisoquinoline compounds” (priority 2004, published 2006).
pKi: −log10 of the molar value. Where two headings read alike, the source gives them in different places.

Tests used:
human H3 receptor [1] = molecular target: T1, human H3 receptor (Homo sapiens, UniProt Q9Y5N1); assay: H3 receptor binding (N-[3H]-α-methylhistamine displacement); conditions: membranes of SK-N-MC cells expressing cloned human H3 receptor, 0.8 nM N-[3H]-α-methylhistamine, 60 min at 25° C.
T1 construct: expressed in transfected cells
T1 sequence (Q9Y5N1 whole entry): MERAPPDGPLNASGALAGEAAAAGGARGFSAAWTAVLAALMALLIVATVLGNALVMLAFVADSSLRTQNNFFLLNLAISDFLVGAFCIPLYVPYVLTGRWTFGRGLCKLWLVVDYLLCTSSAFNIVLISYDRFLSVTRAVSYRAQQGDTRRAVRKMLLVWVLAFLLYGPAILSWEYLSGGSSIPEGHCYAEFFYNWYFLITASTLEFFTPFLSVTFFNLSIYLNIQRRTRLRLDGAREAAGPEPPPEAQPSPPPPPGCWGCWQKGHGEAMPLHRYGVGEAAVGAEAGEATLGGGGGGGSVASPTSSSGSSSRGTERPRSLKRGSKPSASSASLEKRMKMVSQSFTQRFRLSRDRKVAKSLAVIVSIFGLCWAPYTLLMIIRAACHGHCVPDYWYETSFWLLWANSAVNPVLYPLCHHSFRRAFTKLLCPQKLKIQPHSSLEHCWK

Rat SERT = molecular target: T2, Rat SERT (Rattus norvegicus, UniProt P31652); assay: Rat brain SERT binding ([3H]-citalopram displacement); conditions: rat brain membranes without cerebellum, 0.6 nM [3H]-citalopram, 60 min at 25° C.; for pKi: read-out: Rat SERT Ki
T2 construct: A rat brain without cerebellum (Zivic Laboratories, Inc.—Pittsburgh, Pa.) was homogenized; tissue Zivic Laboratories, Inc; host or cells: rat brain without cerebellum, membranes
T2 sequence (P31652 whole entry): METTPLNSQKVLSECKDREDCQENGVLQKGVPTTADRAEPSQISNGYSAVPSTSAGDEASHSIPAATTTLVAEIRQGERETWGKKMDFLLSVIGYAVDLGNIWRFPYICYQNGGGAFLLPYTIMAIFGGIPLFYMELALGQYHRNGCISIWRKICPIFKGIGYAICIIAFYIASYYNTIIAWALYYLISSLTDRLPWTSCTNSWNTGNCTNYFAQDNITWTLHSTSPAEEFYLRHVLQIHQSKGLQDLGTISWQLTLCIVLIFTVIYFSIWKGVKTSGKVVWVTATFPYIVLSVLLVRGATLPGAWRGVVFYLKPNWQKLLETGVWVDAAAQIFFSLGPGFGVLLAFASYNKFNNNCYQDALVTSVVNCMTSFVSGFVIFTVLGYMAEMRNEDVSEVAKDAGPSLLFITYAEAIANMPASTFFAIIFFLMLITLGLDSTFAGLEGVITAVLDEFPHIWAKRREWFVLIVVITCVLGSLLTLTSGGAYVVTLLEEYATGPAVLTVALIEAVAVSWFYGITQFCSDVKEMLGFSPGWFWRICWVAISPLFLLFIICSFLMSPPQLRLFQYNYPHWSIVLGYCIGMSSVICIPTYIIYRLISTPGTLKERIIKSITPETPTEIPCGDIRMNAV
Protocol: The supernatant was removed and re-centrifuged at 15,000 rpm for 30 min. […] Membranes were incubated with 0.6 nM [^3H]-Citalopram plus/minus test compounds for 60 min at 25° C. and harvested by rapid filtration over GF/C glass fiber filters (pretreated with 0.3% polyethylenimine) followed by four washes with ice-cold buffer.

human SERT = molecular target: T3, human SERT (Homo sapiens, UniProt P31645); assay: Human SERT binding (3H-citalopram displacement); conditions: HEK293 membranes expressing human SERT, rt 1 h
T3 construct: expressed in transfected cells; host or cells: HEK293 membranes
T3 sequence (P31645 whole entry): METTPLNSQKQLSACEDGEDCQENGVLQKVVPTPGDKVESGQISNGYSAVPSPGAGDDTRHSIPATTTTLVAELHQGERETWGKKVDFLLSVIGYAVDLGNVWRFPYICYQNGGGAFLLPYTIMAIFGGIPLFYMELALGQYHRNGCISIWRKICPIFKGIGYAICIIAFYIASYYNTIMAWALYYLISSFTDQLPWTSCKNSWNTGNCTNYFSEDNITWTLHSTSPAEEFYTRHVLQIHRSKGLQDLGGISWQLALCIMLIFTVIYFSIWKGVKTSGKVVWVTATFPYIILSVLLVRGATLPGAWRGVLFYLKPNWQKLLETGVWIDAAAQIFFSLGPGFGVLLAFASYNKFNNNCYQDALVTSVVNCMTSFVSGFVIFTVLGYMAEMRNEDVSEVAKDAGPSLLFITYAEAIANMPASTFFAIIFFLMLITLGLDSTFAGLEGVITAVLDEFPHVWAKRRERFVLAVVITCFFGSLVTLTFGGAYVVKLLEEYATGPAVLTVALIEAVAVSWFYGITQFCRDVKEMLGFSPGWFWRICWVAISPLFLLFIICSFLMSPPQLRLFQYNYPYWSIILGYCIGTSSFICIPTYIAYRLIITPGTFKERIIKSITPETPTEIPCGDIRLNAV
Protocol: Homogenized HEK293 (Human Embryonic Kidney) membranes expressing the human SERT were incubated with ^3H-citalopram (SERT) at rt for 1 h in 50 mM Tris, 120 mM NaCl, 5 mM KCl (pH 7.4). […] The membranes were washed and the radioactivity was counted as above.

human H3 receptor [2] = molecular target: T1, human H3 receptor; assay: Cyclic AMP accumulation (β-galactosidase reporter, Schild analysis); type: cell-based; conditions: histamine agonist, forskolin 5 μM, Schild regression of pEC50 values
Protocol: Sublines of SK-N-MC cells were created that expressed a reporter construct and the human H3 receptor. The reporter gene (β-galactosidase) is under the control of multiple cyclic AMP responsive elements. In 96-well plates, histamine was added directly to the cell media followed 5 min later by an addition of forskolin (5 μM final concentration). When appropriate, antagonists were added 10 min prior to agonist addition. After a 6-h incubation at 37° C., the media was aspirated and the cells washed with 200 μL of phosphate-buffered saline followed by a second aspiration. Cells were lysed with 25 μL 0.1× assay buffer (10 mM Na-phosphate, pH 8, 0.2 mM MgSO4, 0.01 mM MnCl2) and incubated at rt for 10 min. […] Color was developed using 25 μL of 1 mg/mL substrate solution (chlorophenolred β-D galactopyranoside; Roche Molecular Biochemicals, Indianapolis, In.).

[3] = pA2, SK-N-MC cells expressing human H3 receptor and CRE-β-galactosidase reporter
[4] = SK-N-MC cells expressing human H3 receptor and CRE-β-galactosidase reporter, read-out: pA2 (converted)

Compound | pKi (human H3 receptor [1]) | pKi (Rat SERT) | pKi (human SERT) | Kb (human H3 receptor [2]; [4]) | Kb (human H3 receptor [2]; [3]) | Ki (Rat SERT; Rat SERT Ki (nM))
CN1Cc2cc(OCCCN3CCC(F)CC3)ccc2C(c2ccc(OC(F)F)cc2)C1 (centres unmarked) [Example 50, 4-(4-Difluoromethoxy-phenyl)-7-[3-(4-fluoro-piperidin-1-yl)-propoxy]-2-methyl-1,2,3,4-tetrahydro-isoquinoline] | 8.10 | 8.52 | 8.52 |  | 3.98 nM | 
COc1ccc(C2CN(CCO)Cc3cc(OCCCN4CCCCC4)ccc32)cc1 (centres unmarked) [Example 71, 2-[4-(4-Methoxy-phenyl)-7-(3-piperidin-1-yl-propoxy)-3,4-dihydro-1H-isoquinolin-2-yl]-ethanol] | 9.00 | 7.80 | 7.51 | 0.251 nM |  | 
COc1ccc(C2CN(CCF)Cc3cc(OCCCN4CCCCC4)ccc32)cc1 (centres unmarked) [Example 72, 2-(2-Fluoro-ethyl)-4-(4-methoxy-phenyl)-7-(3-piperidin-1-yl-propoxy)-1,2,3,4-tetrahydro-isoquinoline] | 9.00 | 7.82 | 7.54 |  | 0.794 nM | 
CN1Cc2cc(OCCCN3CCCCC3)ccc2C(c2ccc(Cl)c(Cl)c2)C1 (centres unmarked) [Example 76, 4-(3,4-Dichloro-phenyl)-2-methyl-7-(3-piperidin-1-yl-propoxy)-1,2,3,4-tetrahydro-isoquinoline] | 8.30 |  | 8.05 |  | 3.98 nM | 11 nM
CN1Cc2cc(OCCCN3CCOCC3)ccc2C(c2ccc(Cl)c(Cl)c2)C1 (centres unmarked) [Example 77, 4-(3,4-Dichloro-phenyl)-2-methyl-7-(3-morpholin-4-yl-propoxy)-1,2,3,4-tetrahydro-isoquinoline] | 8.52 | 7.57 | 7.55 |  | 20 nM | 
CCN1Cc2cc(OCCCN3CCC(F)CC3)ccc2C(c2ccc(OC)cc2)C1 (centres unmarked) [Example 146, 2-Ethyl-7-[3-(4-fluoro-piperidin-1-yl)-propoxy]-4-(4-methoxy-phenyl)-1,2,3,4-tetrahydro-isoquinoline] | 8.52 | 7.92 | 7.92 | 2 nM |  | 
CSc1ccc(C2CN(C)Cc3cc(OCC4CN(C(C)C)C4)ccc32)cc1 (centres unmarked) [Example 236, 7-(1-Isopropyl-azetidin-3-ylmethoxy)-2-methyl-4-(4-methylsulfanyl-phenyl)-1,2,3,4-tetrahydro-isoquinoline] | 8.00 | 8.22 | 8.05 | 7.94 nM |  | 
C(#Cc1ccc2c(c1)CNCC2c1cccnc1)CCN1CCCCC1 (centres unmarked) [Example 271, 7-(4-Piperidin-1-yl-but-1-ynyl)-4-pyridin-3-yl-1,2,3,4-tetrahydro-isoquinoline] | 9.15 | 6.38 | 5.52 | 0.251 nM |  | 
COc1ccc(C2CN(C)Cc3cc(C#CCCN4CCCCC4)ccc32)cc1 (centres unmarked) [Example 275, 4-(4-Methoxy-phenyl)-2-methyl-7-(4-piperidin-1-yl-but-1-ynyl)-1,2,3,4-tetrahydro-isoquinoline] | 8.52 | 8.30 | 8.40 | 1.26 nM |  | 
CN1Cc2cc(C#CCCN3CCCCC3)ccc2C(c2ccc(F)cc2)C1 (centres unmarked) [Example 279, 4-(4-Fluoro-phenyl)-2-methyl-7-(4-piperidin-1-yl-but-1-ynyl)-1,2,3,4-tetrahydro-isoquinoline] | 8.22 | 7.05 | 7.01 | 3.16 nM |  | 

Further compounds by rising pKi (human H3 receptor [1]), results first:

pKi (human H3 receptor [1]) | pKi (Rat SERT) | pKi (human SERT) | Kb (human H3 receptor [2]; [4]) | Compound | Kb (human H3 receptor [2]; [3]) | Ki (Rat SERT; Rat SERT Ki (nM))
7.77 | 8.52 | 7.92 | 6.31 nM | CN1Cc2cc(OCCCN3CCOCC3)ccc2C(c2ccc(OC(F)F)cc2)C1 (centres unmarked) [Example 214, 4-(4-Difluoromethoxy-phenyl)-2-methyl-7-(3-morpholin-4-yl-propoxy)-1,2,3,4-tetrahydro-isoquinoline] |  | 
8.30 | 7.33 | 6.80 | 2 nM | CN1Cc2cc(CCCCN3CCCCC3)ccc2C(c2cccnc2)C1 (centres unmarked) [Example 273, 2-Methyl-7-(4-piperidin-1-yl-butyl)-4-pyridin-3-yl-1,2,3,4-tetrahydro-isoquinoline] |  | 
8.52 | 8.22 | 8.30 | 1.26 nM | COc1ccc(C2CN(C)Cc3cc(OCC4CCN(C(C)C)CC4)ccc32)cc1 (centres unmarked) [Example 83, 7-(1-Isopropyl-piperidin-4-ylmethoxy)-4-(4-methoxy-phenyl)-2-methyl-1,2,3,4-tetrahydro-isoquinoline] |  | 
8.52 | 6.27 | 5.52 | 3.16 nM | c1cncc(C2CNCc3cc(CCCCN4CCCCC4)ccc32)c1 (centres unmarked) [Example 272, 7-(4-Piperidin-1-yl-butyl)-4-pyridin-3-yl-1,2,3,4-tetrahydro-isoquinoline] |  | 
8.70 | 7.85 | 8.15 | 2.51 nM | CN1Cc2cc(OCCCN3CCCCC3)ccc2C(c2ccc(C(F)(F)F)cc2)C1 (centres unmarked) [Example 60] |  | 
9.00 | 7.32 | 6.80 | 0.126 nM | CN1Cc2cc(OCCCN3CCCCC3)ccc2C(c2cccnc2)C1 (centres unmarked) [Example 59, 2-Methyl-7-(3-piperidin-1-yl-propoxy)-4-pyridin-3-yl-1,2,3,4-tetrahydro-isoquinoline] |  | 
9.05 | 7.66 | 7.28 | 0.1 nM | CN1Cc2cc(OCCCN3CCCCC3)ccc2C(c2ccsc2)C1 (centres unmarked) [Example 57, 2-Methyl-7-(3-piperidin-1-yl-propoxy)-4-thiophen-3-yl-1,2,3,4-tetrahydro-isoquinoline] |  | 
